Results taken from ChEMBL document CHEMBL1201862, “PubChem BioAssay data set” (2004).
Active and inactive are the calls of the source.

Tests used:
[1] = molecular target: T1, DNA repair and recombination protein RAD54-like (Homo sapiens, UniProt Q92698); test: RAD54 Holliday junction migration blockers – biochemical, fluorescence, cherry-picked samples, dose series, confirmation (AID 651657); format: functional
T1 sequence (Q92698 whole entry): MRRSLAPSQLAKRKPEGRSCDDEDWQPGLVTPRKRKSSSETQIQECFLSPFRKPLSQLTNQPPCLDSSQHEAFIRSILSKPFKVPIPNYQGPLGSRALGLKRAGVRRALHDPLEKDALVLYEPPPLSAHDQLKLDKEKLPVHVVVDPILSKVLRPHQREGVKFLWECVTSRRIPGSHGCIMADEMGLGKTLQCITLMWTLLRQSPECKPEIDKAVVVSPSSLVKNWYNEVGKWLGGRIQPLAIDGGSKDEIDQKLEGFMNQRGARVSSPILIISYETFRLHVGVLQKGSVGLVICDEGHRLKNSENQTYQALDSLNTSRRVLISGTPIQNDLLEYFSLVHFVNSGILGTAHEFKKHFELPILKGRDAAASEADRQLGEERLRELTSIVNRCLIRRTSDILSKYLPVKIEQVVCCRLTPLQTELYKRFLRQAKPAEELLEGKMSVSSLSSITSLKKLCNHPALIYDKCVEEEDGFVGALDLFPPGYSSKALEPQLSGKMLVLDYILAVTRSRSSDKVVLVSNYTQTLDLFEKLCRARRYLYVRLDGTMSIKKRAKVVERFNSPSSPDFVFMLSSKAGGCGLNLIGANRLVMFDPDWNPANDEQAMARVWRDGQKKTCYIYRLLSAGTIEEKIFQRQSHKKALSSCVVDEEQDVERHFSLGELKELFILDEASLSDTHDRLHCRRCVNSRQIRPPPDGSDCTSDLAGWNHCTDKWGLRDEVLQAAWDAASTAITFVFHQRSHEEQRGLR

[2] = molecular target: T2, DNA repair protein RAD52 homolog (Homo sapiens, UniProt P43351); format: functional, biochemical
T2 sequence (P43351 whole entry): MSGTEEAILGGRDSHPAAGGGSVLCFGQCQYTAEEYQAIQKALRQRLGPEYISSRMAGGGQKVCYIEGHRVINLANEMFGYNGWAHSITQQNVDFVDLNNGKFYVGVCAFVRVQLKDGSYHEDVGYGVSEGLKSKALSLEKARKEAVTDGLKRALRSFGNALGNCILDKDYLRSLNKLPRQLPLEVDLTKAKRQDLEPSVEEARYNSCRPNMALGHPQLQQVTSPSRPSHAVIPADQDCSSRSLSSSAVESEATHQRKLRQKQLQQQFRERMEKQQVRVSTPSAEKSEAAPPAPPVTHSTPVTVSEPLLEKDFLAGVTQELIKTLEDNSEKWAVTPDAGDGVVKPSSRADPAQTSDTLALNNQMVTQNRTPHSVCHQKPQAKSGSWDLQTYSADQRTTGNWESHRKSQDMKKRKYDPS

[3] = HGIII-sPLA2 enzyme inhibition potency – biochemical, QFRET, IC50, dose response (AID 743457);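 note: green fluorescence rise as the enzyme cleaves BODIPY PC-A2 in liposomes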
Prothrombin = Prothrombin (Homo sapiens, UniProt P00734); test: Thrombin 1536 HTS Dose Response Confirmation. [Related pubchem assays: 1046 (Thrombin 1536 HTS; hits were confirmed in this assay)]; format: functional
[4] = molecular target: Mitogen-activated protein kinase 10 (Homo sapiens, UniProt P53779); test: Dose response biochemical screening assay for inhibitors of c-Jun N-Terminal Kinase 3 (JNK3). [Related pubchem assays: 746 ]
Chain of Mitogen-activated protein kinase 10 (P53779 whole entry): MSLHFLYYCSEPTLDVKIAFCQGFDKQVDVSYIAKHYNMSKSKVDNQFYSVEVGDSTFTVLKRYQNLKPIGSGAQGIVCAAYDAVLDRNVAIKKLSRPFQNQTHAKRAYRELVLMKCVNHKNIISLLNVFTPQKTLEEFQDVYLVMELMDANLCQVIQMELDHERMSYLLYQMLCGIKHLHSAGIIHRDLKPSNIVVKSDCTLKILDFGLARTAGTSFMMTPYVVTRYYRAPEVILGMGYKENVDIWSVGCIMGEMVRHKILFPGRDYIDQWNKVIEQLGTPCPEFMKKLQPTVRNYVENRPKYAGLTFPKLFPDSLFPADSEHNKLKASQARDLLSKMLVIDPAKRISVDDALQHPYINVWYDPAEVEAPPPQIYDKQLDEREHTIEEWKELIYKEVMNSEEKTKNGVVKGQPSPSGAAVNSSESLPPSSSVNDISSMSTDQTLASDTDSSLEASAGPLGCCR

[5] = viability inhibitors of stage V gametocytes – luminescence, dose response (AID 1117278); format: functional, cell-based;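 note: gametocytes exposed to compound for 24 hours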
[6] = viability loss in human Jurkat cells – cell-based, luminescence, cytotoxicity control for P. falciparum gametocyte viability project, dose response (AID 1117277); format: functional;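 note: potency reflects loss of cellular ATP meaning fewer viable cells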
[7] = viability of uninfected HEp-2 cells – cell-based, HTS, cytotoxicity control for RSV inhibitor project, dose response (AID 2410); format: functional; settings: human respiratory syncytial virus
[8] = luciferase reporter signal suppression in cells – H4 neuroglioma cells, luminescence, dose response (AID 1990); format: functional, cell-based
[9] = Luminescence Cell-Based Dose Response HTS to Identify Inhibitors of 5'UTR Stem-Loop Driven Prion Protein mRNA Translation in H4 Neuroglioblastoma Cells. [Related pubchem assays: 1827 (Project Summary), 1813 (Primary HTS)]; format: functional
[10] = alpha-synuclein stem-loop luciferase translation blockers – H4 neuroglioma cells, luminescence, confirmation (AID 1988); format: functional, cell-based
[11] = Trypanosoma cruzi growth suppression in host cells – NIH3T3 host cells, beta-gal luminescence, confirmation (AID 2044); format: functional, cell-based;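 note: intracellular parasites grown in NIH/3T3 mouse fibroblasts as host cells; luminescent beta-galactosidase reporter signal from transgenic T. cruzi replicating inside host cells; inhibitors lower the luminescence signal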
[12] = NIH3T3 cell viability loss – ATP luminescence, mouse fibroblasts, counter-screen, dose response (AID 2010); format: functional, cell-based;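 note: cells exposed to compound for about 90 hours before reading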
[13] = blockers of HIV-1 envelope-mediated cell-cell fusion – cherry-pick, dose response (AID 652057); format: functional, cell-based
[14] = viability loss in CEM21 cells – cell-based, CellTiter-Glo luminescence, cherry-picked, cytotoxicity control for viral fusion inhibitor project, dose response (AID 652042); format: functional;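 note: potency for signal decrease meaning cytotoxicity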
[15] = blockers of HIV-1 ZM109 envelope-driven cell-cell fusion – HeLa effector, CEM target cells, luciferase, cherry-pick, dose response (AID 652058); format: functional, cell-based;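 note: luciferase signal from HIV-1 Env mediated cell-cell fusion of effector and target cells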
[16] = off-target signal loss in HeLa-CEM21 co-culture – HeLa F-luc CTL cells, cherry-picked, counter-screen for HIV-1 Env fusion inhibitor project, dose response (AID 652040); format: functional, cell-based;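 note: potency for signal decrease marking cytotoxic or nonspecific inhibition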
[17] = HIV-1 AD8 envelope cell-cell fusion blockers – cherry-pick, dose response (AID 652062); format: functional, cell-based;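 note: luciferase signal from cell-cell fusion driven by HIV-1 clade B AD8 Env; potency is for inhibitors of fusion seen as a drop in luminescence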
cells [18] = format: functional, cell-based
cells [19] = format: functional, cell-based; remark: listed apart in the source

For `Cc1cccc(-c2nc(NCCCN(C)C)c3ccccc3n2)c1`, the AC50 [1] was 21.4 µM (active) and the AC50 [2] was 9.69 µM (active).

With `Oc1ccc2c3c1O[C@H]1c4[nH]c5c(c4CC4(O)C(C2)N(CC2CC2)CCC314)CC1(O)[C@H]2Cc3ccc(O)c4c3[C@@]1(CCN2CC1CC1)C5O4` (stereo partly specified) the AC50 [2] was 11.1 µM (active).

For `Cc1cc(C)c2sc(NNC(=O)C3COc4ccccc4O3)nc2c1` (stereo unspecified), the IC50 [3] was 26.2 µM (inactive).

For `O=C(c1ccccc1)n1nc(-c2ccccc2)nc1NCc1ccco1`, the IC50 (Prothrombin) was 1.72 µM (active).

In the case of `COC(=O)c1ccccc1NC(=O)COC(=O)c1ccco1`, the IC50 [4] was 56.7 µM (not active).

For `CC(C)(C)C(=O)N1CCN(c2ccc(Cl)cc2[N+](=O)[O-])CC1`, the IC50 [5] was > 109 µM (inactive) and the IC50 [6] was > 83.3 µM (inactive).

With `CCOc1ccccc1NC(=O)COc1cccc(-n2cnnn2)c1` the IC50 [4] was 69.2 µM (not active).

For `FC(F)(F)c1cnc(NN=C(S)Nc2cccnc2)c(Cl)c1`, the IC50 [3] was > 122 µM (inactive).

With `O=C(NC(Cc1ccc(O)cc1)C(=O)O)c1ccco1` (stereo unspecified) the IC50 [5] was > 109 µM (inactive) and the IC50 [6] was > 83.3 µM (inactive).

In the case of `CCc1cccc2c1Sc1ccccc1CC2N1CCNCC1` (stereo unspecified), the CC50 [7] was 13 µM (active), the EC50 [8] was > 120 µM (not active) and the EC50 [9] was > 120 µM (not active). For the same compound, the EC50 [10] was > 120 µM (not active), the EC50 [11] was 3.99 µM (active) and the EC50 [12] was 9.15 µM (active). The AC50 [2] was 18 µM (active).

With `COc1ccc(COC(=O)C2=C(C)NC(=O)NC2c2ccc(O)c(OC)c2)cc1` (stereo unspecified) the IC50 [4] was 33.8 µM (not active).

With `COc1ccc(CCC(C)NCc2ccc(Cl)c(Cl)c2)cc1` (stereo unspecified) the AC50 [13] was 5.33 µM (active), the AC50 [14] was 59.6 µM (active) and the AC50 [15] was 7.63 µM (active). For the same compound, the AC50 [16] was 8.87 µM (active) and the AC50 [17] was 6.23 µM (active).

For `COc1ccc(-n2cc(-c3ccccc3)nc2S)cc1`, the IC50 [3] was > 122 µM (inactive).

With `CC(C)Oc1ccc(C2CC(=O)N(c3cccc(C(=O)O)c3)C2=O)cc1` (stereo unspecified) the IC50 [5] was > 109 µM (inactive) and the IC50 [6] was > 83.3 µM (inactive).

For `CCC(C)NCCOc1ccc(C)cc1[N+](=O)[O-]` (stereo unspecified), the EC50 (cells [18]) was > 350 µM (not active), the EC50 (cells [19]) was > 350 µM (not active) and the IC50 (Prothrombin) was > 50 µM (not active).

With `c1cc2cc(CNc3nc(NCC4CC4)nc4ccsc34)ccc2o1` the AC50 [13] was 4.73 µM (active), the AC50 [14] was 35.9 µM (active) and the AC50 [15] was 33.1 µM (active). The AC50 [16] was 8.05 µM (active) and the AC50 [17] was 22.5 µM (active).
